Literature values, collected in US20090285878A1, “Compositions and methods for stabilizing liposomal drug formulations” (Tekmira Pharmaceuticals Corporation, priority 2004, published 2009).

- Lactone hydrolyzed (above pH 9): more than 95%
- Open (carboxylate) form of lactone ring (below pH 4): no open form is present
Compound: CC[C@@]1(O)C(=O)OCc2c1cc1n(c2=O)Cc2cc3c(CN(C)C)c(O)ccc3nc2-1 [Topotecan]
